# Tests used:
# [1] = target: hADORA1/CHO (hA1 expressing) cells (Homo sapiens (Human), UniProt P30542); experiment: cell-based; settings: FLIPR inhibition, 10 μM adenosine, read-out: cAMP & FLIPR IC50 (nM) hA1
# Method: hADORA1/CHO (hA1 expressing) cells (Genscript) were plated at 1×10^4 cells/well into 384-well polystyrene plates one day before starting the experiment. On the day of experiment, the supernatant was discard and replaced with 40 μL of dye (FLIPR calcium 5 Assay Kit) per well and the plates were incubated for 60 mins at 37° C. plus 5% CO2. Then testing compounds were added at different concentrations for FLIPR™ inhibition assay. After a 400s incubation with compound, 10 μM adenosine was added into the cells, and the signal was captured by FLIPR.
# [2] = target: hA2a/CHO (Homo sapiens (Human), UniProt P29274); experiment: cAMP inhibition assay in hA2a/CHO cells, 10 μM adenosine; type: cell-based; settings: read-out: cAMP & FLIPR IC50 (nM) hA2a;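 further: compounds added to cells 30 min ahead of adenosine, then a further 30 min at 37 °C with adenosine before cAMP detection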
# Sequence of hA2a/CHO (P29274 whole entry): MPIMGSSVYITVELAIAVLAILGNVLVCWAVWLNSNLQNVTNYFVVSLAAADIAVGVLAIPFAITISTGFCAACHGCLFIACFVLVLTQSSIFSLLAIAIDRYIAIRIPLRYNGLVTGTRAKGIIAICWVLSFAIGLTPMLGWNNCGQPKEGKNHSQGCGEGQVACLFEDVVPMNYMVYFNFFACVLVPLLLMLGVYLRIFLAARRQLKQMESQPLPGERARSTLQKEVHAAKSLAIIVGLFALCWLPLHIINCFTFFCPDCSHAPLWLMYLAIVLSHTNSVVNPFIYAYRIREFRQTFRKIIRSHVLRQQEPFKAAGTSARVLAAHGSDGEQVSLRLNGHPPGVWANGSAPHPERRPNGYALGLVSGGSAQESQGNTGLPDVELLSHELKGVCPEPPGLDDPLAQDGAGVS
# Method: (§1) hA2a/CHO, hA2b/CHO, hA3/CHO and mA2a/CHO (Genscript) were plated at 5×10^3 cells/well into 384-well polystyrene plates at the day of experiment. Compounds were pre-incubated with cells for 30 min at 37° C., 5% CO2. Then 10 μM adenosine was added to the cells and incubated for 30 min at 37° C., 5% CO2. Detection reagent (CISBIO) was added and the plates were incubated for 60 min at room temperature. The signal was captured by Envision.
# [3] = target: hA2b/CHO (Homo sapiens (Human), UniProt P29275); experiment: cAMP inhibition assay in hA2b/CHO cells, 10 μM adenosine; type: cell-based; settings: read-out: cAMP & FLIPR IC50 (nM) hA2b;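 further: cells exposed to compound 30 min at 37 °C, then stimulated with adenosine a further 30 min, cAMP read after 60 min at room temperature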
# Sequence of hA2b/CHO (P29275 whole entry): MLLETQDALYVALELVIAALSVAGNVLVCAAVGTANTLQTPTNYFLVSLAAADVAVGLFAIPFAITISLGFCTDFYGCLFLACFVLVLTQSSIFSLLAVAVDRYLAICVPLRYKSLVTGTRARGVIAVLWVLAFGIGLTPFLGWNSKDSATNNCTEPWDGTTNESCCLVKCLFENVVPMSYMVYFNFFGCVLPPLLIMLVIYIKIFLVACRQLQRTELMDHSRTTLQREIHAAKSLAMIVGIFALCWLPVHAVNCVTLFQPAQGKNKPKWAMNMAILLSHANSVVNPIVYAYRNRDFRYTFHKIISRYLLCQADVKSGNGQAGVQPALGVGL
# Method: as §1
# [4] = target: mA2a/CHO (Mus musculus (Mouse), UniProt Q60613); experiment: cAMP inhibition assay in mA2a/CHO cells, 10 μM adenosine; type: cell-based; settings: read-out: cAMP & FLIPR IC50 (nM) mA2a;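 further: compounds preincubated 30 min at 37 °C before the adenosine challenge, then 30 min further stimulation, readout after 60 min detection reagent incubation at room temperature in 384-well plates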
# Sequence of mA2a/CHO (Q60613 whole entry): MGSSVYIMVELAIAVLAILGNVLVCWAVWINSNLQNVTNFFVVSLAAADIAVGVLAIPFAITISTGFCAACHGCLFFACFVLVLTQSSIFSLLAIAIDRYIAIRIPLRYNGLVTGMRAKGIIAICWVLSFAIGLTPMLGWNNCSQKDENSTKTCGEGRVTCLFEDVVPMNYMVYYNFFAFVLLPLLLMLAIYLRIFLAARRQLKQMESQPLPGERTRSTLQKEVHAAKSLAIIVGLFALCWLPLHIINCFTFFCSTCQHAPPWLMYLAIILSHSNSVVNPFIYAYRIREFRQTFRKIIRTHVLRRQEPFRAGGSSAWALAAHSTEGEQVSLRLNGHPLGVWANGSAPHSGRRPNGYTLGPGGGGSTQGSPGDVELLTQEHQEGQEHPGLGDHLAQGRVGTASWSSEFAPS
# Method: as §1
# Sequence of hADORA1/CHO (hA1 expressing) cells (P30542 whole entry): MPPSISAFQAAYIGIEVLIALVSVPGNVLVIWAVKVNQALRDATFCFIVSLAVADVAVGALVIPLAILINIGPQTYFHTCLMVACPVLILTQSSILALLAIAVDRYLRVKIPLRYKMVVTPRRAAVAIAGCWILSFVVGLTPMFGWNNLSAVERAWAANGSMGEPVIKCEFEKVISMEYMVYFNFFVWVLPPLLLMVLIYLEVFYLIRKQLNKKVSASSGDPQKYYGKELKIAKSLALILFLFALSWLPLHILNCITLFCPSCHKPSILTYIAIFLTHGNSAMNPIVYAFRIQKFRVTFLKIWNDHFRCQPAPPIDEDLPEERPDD
Structure (SMILES),IC50 [1] [nM],IC50 [2] [nM],IC50 [3] [nM],IC50 [4] [nM]
"Cc1cnc2ccc(-c3nc(C(=O)NCC4CN(C)CCO4)c(N)nc3-c3ccc(F)cc3)cn12 (single isomer, unassigned; isomer 2) [Example 250, 3-amino-5-(4-fluorophenyl)-6-(3-methylimidazo[1,2-a]pyridin-6-yl)-N-((4-methylmorpholin-2-yl)methyl) pyrazine-2-carboxamide (isomer 2)]",36,5,212,31
"Cc1cnc2ccc(-c3nc(C(=O)NCC4(C)CCOC4)c(N)nc3-c3ncco3)cn12 (single isomer, unassigned; isomer 2) [Example 252, 3-amino-6-(3-methylimidazo[1,2-a]pyridin-6-yl)-N-((3-methyltetrahydrofuran-3-yl)methyl)-5-(oxazol-2-yl)pyrazine-2-carboxamide (isomer 2)]",260,2.9,821,30
"CN1CCCC1CNC(=O)c1nc(-c2ccc3ncc(Cl)n3c2)c(-c2ncco2)nc1N (stereo in doubt) [Cmpd. 209, 3-amino-6-[3-chloroimidazo[1,2-a]pyridin-6-yl]-N-[[(2S)-1-methylpyrrolidin-2-yl]methyl]-5-(1,3-oxazol-2-yl)pyrazine-2-carboxamide]",> 10000,14,1260,134
"CNCCOc1cccnc1CNC(=O)c1nc(-c2ccc3ncc(C)n3c2)c(-c2ccc(F)cc2)nc1N [Cmpd. 199, 3-amino-5-(4-fluorophenyl)-N-([3-[2-(methylamino)ethoxy]pyridin-2-yl]methyl)-6-[3-methylimidazo[1,2-a]pyridin-6-yl]pyrazine-2-carboxamide]",34,0.7,102,1.6
"Cc1cnc2ccc(-c3nc(C(=O)NC[C@H]4CCN(C(=O)C5CC5)C4)c(N)nc3-c3ncco3)cn12 [Cmpd. 219, 3-amino-N-[[(3R)-1-cyclopropanecarbonylpyrrolidin-3-yl]methyl]-6-[3-methylimidazo[1,2-a]pyridin-6-yl]-5-(1,3-oxazol-2-yl)pyrazine-2-carboxamide]",> 10000,4.9,2300,220
"Cc1cnc2ccc(-c3nc(C(=O)NC[C@@H]4CCN(C(=O)C5CC5)C4)c(N)nc3-c3ncco3)cn12 [Cmpd. 221, 3-amino-N-[[(3S)-1-cyclopropanecarbonylpyrrolidin-3-yl]methyl]-6-[3-methylimidazo[1,2-a]pyridin-6-yl]-5-(1,3-oxazol-2-yl)pyrazine-2-carboxamide]",7540,1.6,1030,33
"Cc1cnc2ccc(-c3nc(C(=O)NCc4cccc(N[C@H]5C[C@@H](N(C)C)C5)n4)c(N)nc3-c3ncco3)cn12 [Cmpd. 224, Cis-3-amino-6-[3-methylimidazo[1,2-a]pyridin-6-yl]-5-(1,3-oxazol-2-yl)-N-[(6-[[3-(di-methylamino)cyclobutyl]amino]pyridin-2-yl)methyl]pyrazine-2-carboxamide]",7880,3.2,245,27
"Cc1cnc2ccc(-c3nc(C(=O)NCc4cccc(N[C@H]5C[C@H](N(C)C)C5)n4)c(N)nc3-c3ncco3)cn12 [Cmpd. 227, Trans-3-amino-6-[3-methyl-imidazo[1,2-a]pyridin-6-yl]-5-(1,3-oxazol-2-yl)-N-[(6-[[3-(dimethylamino)cyclobutyl]amino]pyridin-2-yl)methyl]pyrazine-2-carboxamide]",781,4.4,99,24
"Cc1cnc2ccc(-c3nc(C(=O)NC[C@H]4CCCO4)c(N)nc3-n3nccn3)cn12 [Cmpd. 229, 3-amino-6-[3-methylimidazo[1,2-a]pyridin-6-yl]-N-[[(2R)-oxolan-2-yl]methyl]-5-(2H-1,2,3-triazol-2-yl)pyrazine-2-carboxamide]",1650,2.4,157,19
"Cc1ccc(-c2nc(N)c(C(=O)NCc3c(F)cccc3F)nc2-c2ccc(=O)n(C)c2)o1 [Example 2, 3-amino-N-[(2,6-difluorophenyl)methyl]-6-(1-methyl-6-oxo-1,6-dihydropyridin-3-yl)-5-(5-methylfuran-2-yl)pyrazine-2-carboxamide]",26,0.9,92,21
"Cc1ccc(-c2nc(N)c(CNC(=O)c3c(F)cccc3F)nc2-c2ccc(=O)n(C)c2)o1 [Example 4, N-((3-amino-6-(1-methyl-6-oxo-1,6-dihydropyridin-3-yl)-5-(5-methylfuran-2-yl)pyrazin-2-yl)methyl)-2,6-difluorobenzamide]",18,15,1220,43
"Cc1cc(-c2nc(C(=O)NCc3c(F)cccc3F)c(N)nc2-c2ncco2)cc(C)n1 [Example 5, 3-amino-N-(2,6-difluorobenzyl)-6-(2,6-dimethylpyridin-4-yl)-5-(oxazol-2-yl)pyrazine-2-carboxamide]",10000,28,≥ 10000,219
"CC1CN(c2nc(C(=O)NCc3c(F)cccc3F)c(N)nc2-c2ccc(F)cc2)CC(C)O1 (stereo not drawn) [Example 6, 3-amino-N-(2,6-difluorobenzyl)-6-(2,6-dimethylmorpholino)-5-(4-fluorophenyl)pyrazine-2-carboxamide]",8840,87,≥ 10000,1060
"Cn1cc(-c2nc(CNC(=O)c3c(F)cccc3C(F)(F)F)c(N)nc2-c2ccc(F)cc2)ccc1=O [Example 7, N-[[3-amino-5-(4-fluorophenyl)-6-(1-methyl-6-oxo-1,6-dihydropyridin-3-yl)pyrazin-2-yl]methyl]-2-fluoro-6-(trifluoromethyl)benzamide]",98,166,3860,237
"Cc1cc(-c2nc(CNC(=O)c3ccccn3)c(N)nc2-c2ccc(F)cc2)cc(C)n1 [Example 8, N-[[3-amino-6-(2,6-dimethylpyridin-4-yl)-5-(4-fluorophenyl)pyrazin-2-yl]methyl]pyridine-2-carboxamide]",3400,116,≥ 10000,390
"CN(C)c1cccc(CNC(=O)c2nc(-c3ccc(=O)n(C)c3)c(-c3ncco3)nc2N)n1 [Example 15, 3-amino-N-[[6-(dimethylamino)pyridin-2-yl]methyl]-6-(1-methyl-6-oxo-1,6-dihydropyridin-3-yl)-5-(1,3-oxazol-2-yl)pyrazine-2-carboxamide]",804,39,≥ 10000,86
COc1cccc(CNC(=O)c2nc(-c3ccc(=O)n(C)c3)c(-c3ncco3)nc2N)n1 [Example 17],951,117,≥ 10000,132
"Cc1cccc(CNC(=O)c2nc(-c3ccc(=O)n(C)c3)c(-c3ncco3)nc2N)n1 [Example 18, 3-amino-6-(1-methyl-6-oxo-1,6-dihydropyridin-3-yl)-N-[(6-methylpyridin-2-yl)methyl]-5-(1,3-oxazol-2-yl)pyrazine-2-carboxamide]",1150,105,≥ 10000,116
